According to PubChem BioAssay AID1918998 (Molecular Pharmacology Branch, DTP, NCI, 2023):

Test system: 521955-158-R2-J5-PDC complex spheroid growth
Assay: Anticancer human tumor 521955-158-R2-J5-PDC patient-derived pancreatic carcinoma cell line growth inhibition [AhR]
Settings: for IC50: curve of first compound; for viability, T/C: stronger effect = lower value
Outline: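 Complex tumor spheroids co-cultured with HUVEC and human MSC stroma; AhR antagonists tested in combination with standard-of-care and investigational agents. Top concentration at or near clinical Cmax (else 10 microM), half-log dilutions; growth expressed as percent test/control.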

[1] = second compound 0.1 µM, first compound 0.0316 µM
[2] = second compound 0.1 µM, first compound 0.1 µM
[3] = second compound 0.316 µM, first compound 0.0316 µM
[4] = second compound 0.316 µM, first compound 0.1 µM
[5] = second compound 1 µM, first compound 0.0316 µM
[6] = second compound 1 µM, first compound 0.1 µM
[7] = second compound 3.16 µM, first compound 0.0316 µM
[8] = second compound 3.16 µM, first compound 0.1 µM
[9] = second compound 10 µM, first compound 0.0316 µM
[10] = second compound 10 µM, first compound 0.1 µM
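Throughout, for viability, T/C: spheroids mix tumor cells with HUVEC endothelium and human MSC stroma; luminescence taken as viability surrogate after a week of drug exposure.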

CC1(C)CCC(CN2CCN(c3ccc(C(=O)NS(=O)(=O)c4ccc(NCC5CCOCC5)c([N+](=O)[O-])c4)c(Oc4cnc5[nH]ccc5c4)c3)CC2)=C(c2ccc(Cl)cc2)C1 + Cc1ccccc1N=Nc1ccc(NC(=O)c2ccnn2C)c(C)c1
IC50 (second compound 0.1 µM): > 10 µM
IC50 (second compound 0.316 µM): > 10 µM
IC50 (second compound 1 µM): > 10 µM
IC50 (second compound 3.16 µM): > 10 µM
IC50 (second compound 10 µM): > 10 µM
viability, T/C [1]: 114%
viability, T/C [2]: 140%
viability, T/C (second compound 0.1 µM, first compound 0.316 µM): 96.5%
viability, T/C (second compound 0.1 µM, first compound 1 µM): 102%
viability, T/C (second compound 0.1 µM, first compound 3.16 µM): 104%
viability, T/C (second compound 0.1 µM, first compound 10 µM): 103%
viability, T/C [3]: 110%
viability, T/C [4]: 99.9%
viability, T/C (second compound 0.316 µM, first compound 0.316 µM): 116%
viability, T/C (second compound 0.316 µM, first compound 1 µM): 108%
viability, T/C (second compound 0.316 µM, first compound 3.16 µM): 107%
viability, T/C (second compound 0.316 µM, first compound 10 µM): 96%
viability, T/C [5]: 120%
viability, T/C [6]: 144%
viability, T/C (second compound 1 µM, first compound 0.316 µM): 133%
viability, T/C (second compound 1 µM, first compound 1 µM): 116%
viability, T/C (second compound 1 µM, first compound 3.16 µM): 98.8%
viability, T/C (second compound 1 µM, first compound 10 µM): 94.5%
viability, T/C [7]: 135%
viability, T/C [8]: 155%
viability, T/C (second compound 3.16 µM, first compound 0.316 µM): 165%
viability, T/C (second compound 3.16 µM, first compound 1 µM): 119%
viability, T/C (second compound 3.16 µM, first compound 3.16 µM): 130%
viability, T/C (second compound 3.16 µM, first compound 10 µM): 84.6%
viability, T/C [9]: 166%
viability, T/C [10]: 162%
viability, T/C (second compound 10 µM, first compound 0.316 µM): 158%
viability, T/C (second compound 10 µM, first compound 1 µM): 151%
viability, T/C (second compound 10 µM, first compound 3.16 µM): 108%
viability, T/C (second compound 10 µM, first compound 10 µM): 72.6%

CCN(c1cc(-c2ccc(CN3CCOCC3)cc2)cc(C(=O)NCc2c(C)cc(C)[nH]c2=O)c1C)C1CCOCC1 + Cc1ccccc1N=Nc1ccc(NC(=O)c2ccnn2C)c(C)c1
IC50 (second compound 0.1 µM): > 3 µM
IC50 (second compound 0.316 µM): > 3 µM
IC50 (second compound 1 µM): > 3 µM
IC50 (second compound 3.16 µM): > 3 µM
IC50 (second compound 10 µM): > 3 µM
viability, T/C (second compound 0.1 µM, first compound 0.00949 µM): 123%
viability, T/C (second compound 0.1 µM, first compound 0.03 µM): 110%
viability, T/C (second compound 0.1 µM, first compound 0.0949 µM): 103%
viability, T/C (second compound 0.1 µM, first compound 0.3 µM): 89.1%
viability, T/C (second compound 0.1 µM, first compound 0.949 µM): 74.4%
viability, T/C (second compound 0.1 µM, first compound 3 µM): 79.9%
viability, T/C (second compound 0.316 µM, first compound 0.00949 µM): 111%
viability, T/C (second compound 0.316 µM, first compound 0.03 µM): 106%
viability, T/C (second compound 0.316 µM, first compound 0.0949 µM): 110%
viability, T/C (second compound 0.316 µM, first compound 0.3 µM): 83.1%
viability, T/C (second compound 0.316 µM, first compound 0.949 µM): 76.6%
viability, T/C (second compound 0.316 µM, first compound 3 µM): 84.3%
viability, T/C (second compound 1 µM, first compound 0.00949 µM): 96.6%
viability, T/C (second compound 1 µM, first compound 0.03 µM): 113%
viability, T/C (second compound 1 µM, first compound 0.0949 µM): 97.2%
viability, T/C (second compound 1 µM, first compound 0.3 µM): 83.6%
viability, T/C (second compound 1 µM, first compound 0.949 µM): 95.7%
viability, T/C (second compound 1 µM, first compound 3 µM): 87.6%
viability, T/C (second compound 3.16 µM, first compound 0.00949 µM): 126%
viability, T/C (second compound 3.16 µM, first compound 0.03 µM): 128%
viability, T/C (second compound 3.16 µM, first compound 0.0949 µM): 128%
viability, T/C (second compound 3.16 µM, first compound 0.3 µM): 125%
viability, T/C (second compound 3.16 µM, first compound 0.949 µM): 102%
viability, T/C (second compound 3.16 µM, first compound 3 µM): 112%
viability, T/C (second compound 10 µM, first compound 0.00949 µM): 164%
viability, T/C (second compound 10 µM, first compound 0.03 µM): 153%
viability, T/C (second compound 10 µM, first compound 0.0949 µM): 166%
viability, T/C (second compound 10 µM, first compound 0.3 µM): 150%
viability, T/C (second compound 10 µM, first compound 0.949 µM): 126%
viability, T/C (second compound 10 µM, first compound 3 µM): 122%

Cn1ncnc1C1c2n[nH]c(=O)c3cc(F)cc(c23)NC1c1ccc(F)cc1 (stereo not given) + Cc1ccccc1N=Nc1ccc(NC(=O)c2ccnn2C)c(C)c1
IC50 (second compound 0.1 µM): > 0.1 µM
IC50 (second compound 0.316 µM): > 0.1 µM
IC50 (second compound 1 µM): > 0.1 µM
IC50 (second compound 3.16 µM): > 0.1 µM
IC50 (second compound 10 µM): > 0.1 µM
viability, T/C (second compound 0.1 µM, first compound 0.000316 µM): 110%
viability, T/C (second compound 0.1 µM, first compound 0.001 µM): 115%
viability, T/C (second compound 0.1 µM, first compound 0.00316 µM): 108%
viability, T/C (second compound 0.1 µM, first compound 0.01 µM): 103%
viability, T/C [1]: 105%
viability, T/C [2]: 75.4%
viability, T/C (second compound 0.316 µM, first compound 0.000316 µM): 111%
viability, T/C (second compound 0.316 µM, first compound 0.001 µM): 119%
viability, T/C (second compound 0.316 µM, first compound 0.00316 µM): 108%
viability, T/C (second compound 0.316 µM, first compound 0.01 µM): 98.5%
viability, T/C [3]: 97.8%
viability, T/C [4]: 89.1%
viability, T/C (second compound 1 µM, first compound 0.000316 µM): 111%
viability, T/C (second compound 1 µM, first compound 0.001 µM): 107%
viability, T/C (second compound 1 µM, first compound 0.00316 µM): 138%
viability, T/C (second compound 1 µM, first compound 0.01 µM): 118%
viability, T/C [5]: 118%
viability, T/C [6]: 115%
viability, T/C (second compound 3.16 µM, first compound 0.000316 µM): 140%
viability, T/C (second compound 3.16 µM, first compound 0.001 µM): 150%
viability, T/C (second compound 3.16 µM, first compound 0.00316 µM): 142%
viability, T/C (second compound 3.16 µM, first compound 0.01 µM): 154%
viability, T/C [7]: 128%
viability, T/C [8]: 128%
viability, T/C (second compound 10 µM, first compound 0.000316 µM): 158%
viability, T/C (second compound 10 µM, first compound 0.001 µM): 148%
viability, T/C (second compound 10 µM, first compound 0.00316 µM): 158%
viability, T/C (second compound 10 µM, first compound 0.01 µM): 146%
viability, T/C [9]: 143%
viability, T/C [10]: 141%
